Like-named read-outs stand apart in the source and are kept apart here.
What was measured:
M. morganii ATCC-25830 = test: Antimicrobial activity test: MIC by the agar plate dilution method, M. morganii ATCC-25830; format: cell-based; conditions: inoculum 1×10^6 cells/ml
Experimental: (§1) In order to investigate the in vitro activity of the under-mentioned compounds against various bacteria, the minimal inhibitory concentration (MIC) values were determined by the agar plate dilution method [see Chemotherapy, 22, 1126-1128 (1974)].
(§2) Each test inoculum was adjusted to 1×10^6 cells/ml (O.D., 600 mμ: 0.07-0.16).

S. aureus FDA-209-p = test: Antimicrobial activity test: MIC by the agar plate dilution method, S. aureus FDA-209-p; format: cell-based, Staphylococcus aureus; conditions: inoculum 1×10^6 cells/ml
Experimental: as §1, §2

P. aeruginosa NCTC-10490 = test: Antimicrobial activity test: MIC by the agar plate dilution method, P. aeruginosa NCTC-10490; format: cell-based; conditions: inoculum 1×10^6 cells/ml
Experimental: as §1, §2

S. marcescens IFO-12648 = test: Antimicrobial activity test: MIC by the agar plate dilution method, S. marcescens IFO-12648; format: cell-based
Experimental: as §1, §2

P. mirabilis 1287 = test: Antimicrobial activity test: MIC by the agar plate dilution method, P. mirabilis 1287; format: cell-based; conditions: P. mirabilis 1287; inoculum 1×10^6 cells/ml
Experimental: as §1, §2

E. coli NIHJ = test: Antimicrobial activity test: MIC by the agar plate dilution method, E. coli NIHJ; format: cell-based; conditions: inoculum 1×10^6 cells/ml
Experimental: as §1, §2

K. pneumoniae NCTC-9632 = test: Antimicrobial activity test: MIC by the agar plate dilution method, K. pneumoniae NCTC-9632; format: cell-based; conditions: inoculum 1×10^6 cells/ml
Experimental: as §1, §2

E. coli No. 29 = test: Antimicrobial activity test: MIC by the agar plate dilution method, E. coli No. 29; format: cell-based
Experimental: as §1, §2

[1] = S. marcescens IFO-12648, inoculum 1×10^6 cells/ml
[2] = E. coli No. 29, inoculum 1×10^6 cells/ml

| Substance | MIC (M. morganii ATCC-25830) [µg/mL] | MIC (S. aureus FDA-209-p) [µg/mL] | MIC (P. aeruginosa NCTC-10490) [µg/mL] | MIC (S. marcescens IFO-12648; [1]) [µg/mL] | MIC (P. mirabilis 1287) [µg/mL] | MIC (E. coli NIHJ) [µg/mL] | MIC (K. pneumoniae NCTC-9632) [µg/mL] | MIC (E. coli No. 29; [2]) [µg/mL] | MIC (S. marcescens IFO-12648) [µg/mL] | MIC (E. coli No. 29) [µg/mL] |
| --- | --- | --- | --- | --- | --- | --- | --- | --- | --- | --- |
| 7-[2-(2-Aminothiazol-4-yl)-2-allyloxyiminoacetamido]-3-[(1,3,4-thiadiazol- 2-yl)thiomethyl]- Δ^3 -O-2-isocephem-4-carboxylic acid (syn-isomer) [No. 3] | ≤ 0.025 | 0.78 | 12.5 | 0.2 | ≤ 0.025 | ≤ 0.025 | 0.1 | ≤ 0.025 |  |  |
| 7-[2-(2-Aminothiazol-4-yl)-2-benzyloxyiminoacetamido]-3-[(1,3,4-thiadiazol-2-yl)thiomethyl]-Δ^3 -O-2-isocephem-4-carboxylic acid trifluoroacetate (syn-isomer) [No. 13] | ≤ 0.025 | 0.1 | 1.56 | 0.1 | ≤ 0.025 | ≤ 0.025 | ≤ 0.025 | ≤ 0.025 |  |  |
| 7-[2-(2-Aminothiazol-4-yl)-2-cyanomethyloxyiminoacetamido]-3-[(1,2,3-thiadiazol-5-yl)thiomethyl]-Δ^3 -O-2-isocephem-4-carboxylic acid trifluoroacetate (syn-isomer) [Example 55] | ≤ 0.025 | 0.2 | 1.56 | 0.1 | ≤ 0.025 | ≤ 0.025 | ≤ 0.025 | ≤ 0.025 |  |  |
| 7-[2-(2-Aminothiazol-4-yl)-2-cyanomethyloxyiminoacetamido]-3-[(1,3,4-thiadiazol-2-yl)thiomethyl]-Δ^3 -O-2-isocephem-4-carboxylic acid trifluoroacetate (syn-isomer) [No. 11] | 0.1 | 0.78 | 1.56 | 1.56 | 0.05 | 0.39 | 0.39 | 0.2 |  |  |
| 7-[2-(2-Aminothiazol-4-yl)-2-cyclopropvlmethyloxyiminoacetamido]-3-[(1,2,3- thiadiazol-5-yl)thiomethyl]-Δ^3 -O-2-isocephem-4-carboxylic acid (syn-isomer) [Example 57] | 0.05 | 0.1 | 0.78 |  | 0.1 | 0.2 | 0.39 | 0.1 | 0.78 |  |
| 7-[2-(2-Aminothiazol-4-yl)-2-cyclopropylmethyloxyiminoacetamido]-3-[(1,3,4-thiadiazol-2-yl)thiomethyl]-Δ^3 -O-2-isocephem-4-carboxylic acid trifluoroacetate (syn-isomer) [No. 10] | ≤ 0.025 | 0.05 | 3.13 | 0.05 | ≤ 0.025 | ≤ 0.025 | 0.05 | 0.05 |  |  |
| 7-[2-(2-Aminothiazol-4-yl)-2-ethoxyiminoacetamido]-3-[(1,3,4-thiadiazol-2-yl)thiomethyl]-Δ^3 -O-2-isocephem-4-carboxylic acid (syn-isomer) [Example 29] | ≤ 0.025 | 0.05 | 6.25 | 0.2 | ≤ 0.025 | ≤ 0.025 | 0.05 | ≤ 0.025 |  |  |
| 7-[2-(2-Aminothiazol-4-yl)-2-methoxyiminoacetamido]-3-[(1,2,3-thiadiazol-5-yl)thiomethyl]-Δ^3 -O-2-isocephem-4-carboxylic acid trifluoroacetate (syn-isomer) [No. 14] | ≤ 0.025 | 0.1 | 1.56 | 0.1 | ≤ 0.025 | ≤ 0.025 | ≤ 0.025 | ≤ 0.025 |  |  |
| 7-[2-(2-Aminothiazol-4-yl)-2-methoxyiminoacetamido]-3-[(1,3,4-thiadiazol-2-yl)thiomethyl]- Δ^33 -O-2-isocephem-4-carboxylic acid (syn-isomer) [No. 2] | 0.2 | 1.56 | 3.13 |  | 0.1 | 0.39 | 0.78 |  | 0.78 | 0.78 |
| 7-[2-(2-Aminothiazol-4-yl)-2-methoxyiminoacetamido]-3-[(1,4,5,6-tetrahydro-4-methyl-5,6-dioxo-1,2,4-triazin-3-yl)thiomethyl]-Δ^3 -O-2-isocephem-4-carboxylic acid (syn-isomer) [No. 4] | ≤ 0.025 | 0.78 | 50 | 0.2 | ≤ 0.025 | ≤ 0.025 | ≤ 0.025 | ≤ 0.025 |  |  |
| 7-[2-(2-Aminothiazol-4-yl)-2-methoxyiminoacetamido]-3-[(carbamoyloxy)methyl]-Δ^3 -O-2-isocephem-4-carboxylic acid (syn-isomer) [No. 1] | 0.1 | 0.78 | 1.56 |  | 0.1 | 0.2 | 0.39 |  | 0.78 | 0.39 |
| 7-[2-(2-Aminothiazol-4-yl)-2-methylthiomethoxyiminoacetamido]-3-[(1,3,4-thiadiazol-2-yl)thiomethyl]-Δ^3 -O-2-isocephem-4-carboxylic acid (syn-isomer) [No. 12] | ≤ 0.025 | 0.2 | 3.13 | 0.1 | ≤ 0.025 | ≤ 0.025 | 0.05 | ≤ 0.025 |  |  |
| 7-[2-(2-Aminothiazol-4-yl)-2-propargyloxyiminoacetamido]3-[(1,3,4-thiadiazol-2-yl)thiomethyl-66^3 -O-b 2-isocephem-4-carboxylic acid trifluoroacetate (syn-isomer) [No. 7] | 0.05 |  | 0.78 | 0.2 | ≤ 0.025 | ≤ 0.025 | 0.1 | 0.1 |  |  |
| 7-[2-(2-Formamidothiazol-4-yl)-2-(2-chloroethoxy)iminoacetamido]-3-[(1,3,4- thiadiazol-2-yl)thiomethyl-]-Δ^3 -O-2-isocephem-4-carboxylic acid (syn-isomer) [Example 33] | 0.2 |  | 1.56 |  | 0.05 | 0.1 | 0.1 | 0.2 | 0.78 |  |
| (6S,7S)-7-[2-(2-Aminothiazol-4-yl}-2methoxyiminoacetamido]-3-[(1,3,4-thiadiazol-2-yl)thiomethyl]-Δ^3 -O-2-isocephem-4-carboxylic acid trifluoroacetate (syn-isomer) [No. 15] | ≤ 0.025 |  | 1.56 | 0.2 | ≤ 0.025 | ≤ 0.025 | ≤ 0.025 | ≤ 0.025 |  |  |
| Benzyl 7-[2-(2-chloroacetamidothiazol-4-yl)-2-cyclopentyloxyiminoacetamido]-3-[(1,3,4-thiadiazol-2- yl)thiomethyl]-Δ^3 -O-2-isocephem-4-carboxylate (syn-isomer) [Example 25] | ≤ 0.025 | 1.56 | 0.78 | 0.2 | ≤ 0.025 |  | 0.05 | ≤ 0.025 |  |  |
| Benzyl 7-[2-(2-trichloroacetamidothiazol-4-yl)-2-methoxyiminoacetamido]-3-[(carbamoyloxy)methyl]-Δ^3 -O-2-isocephem-4-carboxylate (syn-isomer) [Example 5] | 0.05 | 3.13 | 25 | 0.2 | ≤ 0.025 |  | 0.1 | 0.1 |  |  |
| Benzyl 7-[2-(2-trifluoroacetamidothiazol-4-yl)-2-methoxyiminoacetamido]-3-[(carbamoyloxy)methyl]-Δ^3 -O-2-isocephem-4-carboxylate (syn-isomer) [Example 4] | ≤ 0.025 | 0.78 | 6.25 | 0.2 | ≤ 0.025 |  | 0.1 | 0.05 |  |  |
